Test results: paper PMC7022715 (Pharmaceutics, 2019)

How the values were obtained:
[1] = parameters: method as in ref 11 (Al Omari et al. 2007); settings: UV exposure for 15 min; ref 11 (Al Omari et al. 2007); cited from earlier work
[2] = In vivo pharmacokinetics after topical application to dorsal skin; settings: male, Sprague-Dawley, rat, plasma, both hydrogel groups, rats, topical 25 mg/kg
Protocol: In vivo pharmacokinetic study of MTK-loaded nanocrystal preparation was carried out in the healthy rats, after approval from Institutional Animal Care and Use Committee (IACUC) of Dankook University (Cheonan, Korea) (DKU-19-032, 8th October 2019). Six-week-old male Sprague-Dawley rats (SD rats, 250 ± 20 g) obtained from Samtako (Kyungki-do, Korea) were acclimated for at least 3 days, with free access to tap water and standardized chow. The rats were then divided into two groups (n = 6 per each group) and the hair on the dorsal region was removed by hair clippers without damaging the skin, prior to topical application. […] During the experimental period (24 h), individual rats were monitored for their changes in skin and fur, behavior pattern, morbidity, and mortality. […] The drug concentration in the plasma was determined by the high-performance liquid chromatography and tandem mass spectrometry (LC–MS/MS) method described below.
Briefly, 20 μL of thawed rat plasma was mixed with 500 μL of the extraction solution (25% (v/v) of dichloromethane and 75% (v/v) of ethyl acetate), including zafirlukast (the internal standard, IS, 60 ng/mL) and vortexed for 60 s. […] Then, the residue was reconstituted with 100 μL of methanol and the final solution was analyzed through the LC-MS/MS system, composed of Nexera X2 UHPLC and LCMS-8050 mass spectrometer (Shimadzu, Tokyo, Japan). […]

[3] = oral, rats and mice, 12 months; cited from earlier work
[4] = assay type: in vivo; settings: rats, 25 mg/kg topical, 24 h monitoring
Protocol: In vivo pharmacokinetic study of MTK-loaded nanocrystal preparation was carried out in the healthy rats, after approval from Institutional Animal Care and Use Committee (IACUC) of Dankook University (Cheonan, Korea) (DKU-19-032, 8th October 2019). Six-week-old male Sprague-Dawley rats (SD rats, 250 ± 20 g) obtained from Samtako (Kyungki-do, Korea) were acclimated for at least 3 days, with free access to tap water and standardized chow. The rats were then divided into two groups (n = 6 per each group) and the hair on the dorsal region was removed by hair clippers without damaging the skin, prior to topical application. […] To avoid the drying of the nanocrystal or conventional hydrogels, a thin film made from polyurethane and acrylamide (Tegaderm®, 10 × 12 cm) was attached onto the application site. At predetermined time intervals (0, 0.5, 1, 2, 3, 4, 5, 8, 12, and 24 h), the blood samples (about 0.2 mL) were withdrawn from the submandibular vein using 28 G heparinized syringe. At 6 h post-administration, rats were allowed to freely access to water and standardized chow. During the experimental period (24 h), individual rats were monitored for their changes in skin and fur, behavior pattern, morbidity, and mortality. […] The drug concentration in the plasma was determined by the high-performance liquid chromatography and tandem mass spectrometry (LC–MS/MS) method described below.

[5] = parameters: method as in ref 25 (Lai et al.); settings: photo-stability; ref 25 (Lai et al.); cited from earlier work

CC(C)(O)c1ccccc1CC[C@@H](SCC1(CC(=O)O)CC1)c1cccc(/C=C/c2ccc3ccc(Cl)cc3n2)c1 [MTK, Montelukast]
drug content in the methanolic solution [1]: 70%
concentration at 5 h ([2]; 5 h post-dosing): 2 to 6 ng/mL
concentration at 12 h ([2]; 12 h post-dosing, read-out: drug concentration in the plasma): < 1 ng/mL
NOAEL [3]: 50 mg/kg
adverse effects following single topical administration [4]: no marked adverse effects

CC1=C(/C=C/C(C)=C/C=C/C(C)=C/C(=O)O)C(C)(C)CCC1 [tretinoin]
half-life with nanosuspension as compared to drug methanolic solution [5]: 7.5 fold
